The record followed here is US20080274096A1, “Fusion Proteins Having a Modulated Half-Life in Plasma” (ASTRAZENECA AB, priority 2005, published 2008).

Holding throughout (assay type): biochemical
Data set [1] has as its target T1, Human recombinant Neprilysin (Homo sapiens, UniProt P08473). Briefly: Inhibition of Neprilysin degradation of amyloid β1-40 peptide in buffer. Also on record: Degradation of Amyloid β Peptide by Soluble Neprilysin; purchased R&D Systems. Conditions: 10 microM Phosphoramidone; Neprilysin 1.8 μg/ml; 3 hours, 37° C.
Protocol: The assay is measuring the remaining amyloid β1-40 peptide (Bachem) concentration following its incubation in the presence of Neprilysin (R&D Systems) with or without Neprilysin inhibitor. 100 μl of reaction mixture containing of amyloid β1-40 peptide (final concentration 1 or 10 μM) and/or Neprilysin (1.8 μg/ml), and/or Phosphoramidone (10 μM) was incubated in a round bottom 96-well polypropylene plate at 37° C. for 3 hours. Following incubation, 50 μl of antibodies solution containing anti-Aβ40 (final concentration 0.125 μg/ml; Biosource) and Biotinylated 6E10 (final concentration 0.125 μg/ml; Signet) antibodies was added to each well. Plate was incubated at RT for 3 h. Following incubation, 50 μl of detection mixture of Dynabeads M280 (Dynal Biotech ASA) and secondary antibody Ru-GαR (final concentration 0.132 μg/ml) was added to all wells. Plate was incubated on a shaker at RT for 1 h and results were recorded on IGEN/Bio Veris M8 analyser. Amyloid β1-40 peptide degradation by Neprilysin was calculated as a percentage of Amyloid β1-40 peptide left after incubation in the presence of Neprilysin compared to the amyloid β1-40 peptide concentration in the absence of Neprilysin.
Data set [2] addresses T1, Human recombinant Neprilysin. Briefly: Inhibition of added Neprilysin degradation of Aβ40 in guinea pig plasma. The arrangement: purchased R&D Systems; host or cells: enzyme added to pooled heparinized guinea pig plasma. The conditions noted are these: 10 microM Phosphoramidon.
Protocol: Blood was withdrawn from anaesthetized guinea pigs by heart puncture. The blood were collected into prechilled heparin-plasma tubes and centrifuged for 10 min at 4° C. at 3000×g within 20 minutes of sampling. Plasma samples were transferred to pre-chilled polypropylene tubes and immediately frozen on dry ice and stored at −70° C. prior to use. The experiments were performed on a pool of plasma from 5-6 guinea pigs.
Human recombinant Neprilysin in a buffer containing 25 mM Tris and 100 mM NaCl pH 8 (R&D Systems) or buffer only (i.e. vehicle) was incubated with guinea pig plasma at 37° C. for 0-360 minutes in presence or absents of 10 microM phosphoramidon (Biomol). A final concentration of 4.7 mM EDTA was added into the tubes before the amount of Aβ1-40 or Aβ1-42 was analyzed by using commercial ELISA kits obtained from Biosource (Aβ1-40) or Innogenetics (Aβ1-42).
The test system of data set [3] is amyloid β peptide. Briefly: Two-compartment membrane experiment, degradation of amyloid β peptide. Conditions: degradation in one compartment connected through a membrane. Here is the method:
An experiment is performed to investigate the possibility to remove amyloid β peptide from one compartment by degradation in another compartment connected through a membrane. A similar experiment was conducted using an antibody as an amyloid β peptide agent. The experiment is described by DeMattos et al., (PNAS, 2001). By degrading the amyloid β peptide with neprilysin and/or NEP-Fc in one compartment the concentration of amyloid β peptide in the other compartment is decreased. Importantly, neprilysin or NEP-Fc cannot cross the membrane due to its high molecular weight (161.000 Da and 211.000 Da, respectively).

T1 sequence (P08473 52-750 limits assumed): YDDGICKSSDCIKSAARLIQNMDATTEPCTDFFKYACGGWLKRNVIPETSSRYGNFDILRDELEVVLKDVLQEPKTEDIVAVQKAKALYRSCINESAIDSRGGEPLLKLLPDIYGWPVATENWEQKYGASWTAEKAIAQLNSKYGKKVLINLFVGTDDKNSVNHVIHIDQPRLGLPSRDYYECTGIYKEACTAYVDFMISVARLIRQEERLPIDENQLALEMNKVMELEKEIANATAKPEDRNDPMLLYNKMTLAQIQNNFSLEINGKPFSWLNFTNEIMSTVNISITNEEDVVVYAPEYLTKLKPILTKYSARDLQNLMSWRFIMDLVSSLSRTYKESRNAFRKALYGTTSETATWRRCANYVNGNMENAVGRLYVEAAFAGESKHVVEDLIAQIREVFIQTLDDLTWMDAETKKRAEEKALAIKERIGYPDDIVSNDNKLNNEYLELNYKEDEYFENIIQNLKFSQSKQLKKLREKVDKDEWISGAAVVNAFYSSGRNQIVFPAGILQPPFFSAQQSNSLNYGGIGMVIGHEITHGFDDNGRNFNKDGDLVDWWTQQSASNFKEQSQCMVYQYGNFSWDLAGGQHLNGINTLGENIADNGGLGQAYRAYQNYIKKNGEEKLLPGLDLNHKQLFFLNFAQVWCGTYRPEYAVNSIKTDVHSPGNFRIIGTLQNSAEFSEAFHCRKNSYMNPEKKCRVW

For `CC(C)C[C@H](NP(=O)(O)O[C@@H]1O[C@@H](C)[C@H](O)[C@@H](O)[C@H]1O)C(=O)N[C@@H](Cc1c[nH]c2ccccc12)C(=O)O` [Phosphoramidon], the “Neprilysin activity (Aβ1-40 degradation) in the presence of inhibitor” value in data set [1] is given as “completely abolished”. For the same compound, the “Degradation of Aβ40 by added Neprilysin in the presence of inhibitor” value in data set [2] was “inhibited”.

On to “NEP-Fc: extracellular domain of Neprilysin fused to the IgG4 Fc domain including hinge region, SEQ ID 8”, for which the “Concentration of amyloid β peptide in the other compartment” value in data set [3] is on record as “decreased”.
